Laboratory results published in US11248017B2, “Anti-inflammatory composition including novel kaempferol-based compound derived from post-fermented tea” (AMOREPACIFIC CORPORATION, priority 2017, dated 2022).
One block for each compound: values may come before it.

Experiments:
PGE2 (Prostaglandin E2) = assay: PGE2 production inhibition experiment (ELISA); assay type: cell-based, Human; conditions: for PGE2: human fibroblasts, 500 μM H2O2 24 h, then test substance (33: 100 μg/ml) 48 h, culture medium
Method: (§1) Human fibroblasts (PromoCell, Germany) were seeded into 6-well culture plates at a concentration of 1×10^5 cells and incubated in 37° C., 5% CO2 incubator for 24 hours. After 500 μM of H2O2 was treated in a well and stimulated for 24 hours, the kaempferol3-O-[2-O″-(E)-p-coumaroyl][beta-D-glucopyranosyl-(1-3)-O-alpha-L-rhamnopyranosyl-(1→6)-O-beta-D-glucopyranoside](‘new material 33’) was treated at a concentration of 100 μg/ml each, and was reacted for 48 hours. After completion of the reaction, the culture medium was collected and subjected to ELISA analysis. At this time, α-bisabolol, which is a material frequently used as an anti-inflammation agent and an abirritant, was used as a control. PGE2 used Assay Design's kit and IL-6 and IL-8 used Endogen's kit, and the experiment was conducted according to the method specified in each company's manual. (‘33’ means new material 33) Inhibitory effect={1−(test sample−control)/(H2O2−control)}×100 <Equation 1>

IL-6 (Interleukin 6) = assay: IL-6 production inhibition experiment (ELISA); assay type: cell-based, Human; conditions: for IL-6: human fibroblasts, 500 μM H2O2 24 h, then test substance (33: 100 μg/ml) 48 h, culture medium
Method: as §1

IL-8 (Interleukin 8) = assay: IL-8 production inhibition experiment (ELISA); assay type: cell-based, Human; conditions: for IL-8: human fibroblasts, 500 μM H2O2 24 h, then test substance (33: 100 μg/ml) 48 h, culture medium
Method: as §1

skin = assay: Skin accumulation stimulation experiment, human repeated insult patch test (HRIPT); assay type: in vivo; parameters: key to skin reactivity (ICDRG criteria): −: negative (no response); ±: doubtful or slight erythema, etc.; +: weak reaction (which is accompanied with no phlyctenule), erythema, papule; ++: severe reaction (which is accompanied with phlyctenule), erythema, papule, phlyctenule; +++: strong reaction, bullae reaction; conditions: for Average reactivity: 9 patches over 3 weeks, 15 subjects, less than 3 = stable composition
Method: Human repeated insult patch tests (HRIPT) were performed to confirm the skin accumulation stimulation of the kaempferol3-O-[2-O″-(E)-p-coumaroyl][beta-D-glucopyranosyl-(1→3)-O-alpha-L-rhamnopyranosyl-(1→6)-O-beta-D-glucopyranoside] and to calculate the concentration range available for the skin.
Specifically, 15 healthy adult subjects were randomly selected, and the test composition (the skin composition including an emulsifier, a stabilizer, purified water, etc. in addition to the compound) containing 0.5 wt %, 1 wt %, and 3 wt % of the compound was added dropwise by 20 μl per chamber (IQ chamber, Epitest Ltd, Finland). After 24 hours from patching the upper right part of the back of a subject, it was replaced with the new patch. A total of 9 patches were conducted, three times a week for total 3 weeks, in such manner, the skin reactions before and after patch were examined every time, and the skin reactions until 48 hours after removing the final patch were observed, and the average reactivity was observed.
The skin response was determined according to the criteria of the International Contact Dermatitis Research Group (ICDRG). ‘New material 33’ in the table above is kaempferol3-O-[2-O″-(E)-p-coumaroyl][beta-D-glucopyranosyl-(1→3)-O-alpha-L-rhamnopyranosyl-(1→6)-O-beta-D-glucopyranoside].

Compound: α-bisabolol [a-bisabolol, reference compound]
PGE2 (PGE2 (Prostaglandin E2)): 205 pg/mL
IL-6 (IL-6 (Interleukin 6)): 180 pg/mL
IL-8 (IL-8 (Interleukin 8)): 200 pg/mL

Number of subjects with + reactivity (skin; 0.5 wt %, 1st patch): 0 person
Number of subjects with ++ reactivity (skin; 0.5 wt %, 1st patch): 0 person
Number of subjects with ± reactivity (skin; 0.5 wt %, 1st patch): 0 person
Number of subjects with + reactivity (skin; 0.5 wt %, 2nd patch): 0 person
Number of subjects with ++ reactivity (skin; 0.5 wt %, 2nd patch): 0 person
Number of subjects with ± reactivity (skin; 0.5 wt %, 2nd patch): 0 person
Number of subjects with + reactivity (skin; 0.5 wt %, 3rd patch): 0 person
Number of subjects with ++ reactivity (skin; 0.5 wt %, 3rd patch): 0 person
Number of subjects with ± reactivity (skin; 0.5 wt %, 3rd patch): 0 person
Number of subjects with + reactivity (skin; 0.5 wt %, 4th patch): 0 person
Number of subjects with ++ reactivity (skin; 0.5 wt %, 4th patch): 0 person
Number of subjects with ± reactivity (skin; 0.5 wt %, 4th patch): 0 person
Number of subjects with + reactivity (skin; 0.5 wt %, 5th patch): 0 person
Number of subjects with ++ reactivity (skin; 0.5 wt %, 5th patch): 0 person
Number of subjects with ± reactivity (skin; 0.5 wt %, 5th patch): 0 person
Number of subjects with + reactivity (skin; 0.5 wt %, 6th patch): 0 person
Number of subjects with ++ reactivity (skin; 0.5 wt %, 6th patch): 0 person
Number of subjects with ± reactivity (skin; 0.5 wt %, 6th patch): 0 person
Number of subjects with + reactivity (skin; 0.5 wt %, 7th patch): 0 person
Number of subjects with ++ reactivity (skin; 0.5 wt %, 7th patch): 0 person
Number of subjects with ± reactivity (skin; 0.5 wt %, 7th patch): 0 person
Number of subjects with + reactivity (skin; 0.5 wt %, 8th patch): 0 person
Number of subjects with ++ reactivity (skin; 0.5 wt %, 8th patch): 0 person
Number of subjects with ± reactivity (skin; 0.5 wt %, 8th patch): 0 person
Average reactivity (skin; 0.5 wt %): 0
Number of subjects with + reactivity (skin; 0.5 wt %, 9th patch): 0 person
Number of subjects with ++ reactivity (skin; 0.5 wt %, 9th patch): 0 person
Number of subjects with ± reactivity (skin; 0.5 wt %, 9th patch): 0 person
Number of subjects with + reactivity (skin; 1 wt %, 1st patch): 0 person
Number of subjects with ++ reactivity (skin; 1 wt %, 1st patch): 0 person
Number of subjects with ± reactivity (skin; 1 wt %, 1st patch): 0 person
Number of subjects with + reactivity (skin; 1 wt %, 2nd patch): 0 person
Number of subjects with ++ reactivity (skin; 1 wt %, 2nd patch): 0 person
Number of subjects with ± reactivity (skin; 1 wt %, 2nd patch): 0 person
Number of subjects with + reactivity (skin; 1 wt %, 3rd patch): 0 person
Number of subjects with ++ reactivity (skin; 1 wt %, 3rd patch): 0 person
Number of subjects with ± reactivity (skin; 1 wt %, 3rd patch): 0 person
Number of subjects with + reactivity (skin; 1 wt %, 4th patch): 0 person
Number of subjects with ++ reactivity (skin; 1 wt %, 4th patch): 0 person
Number of subjects with ± reactivity (skin; 1 wt %, 4th patch): 0 person
Number of subjects with + reactivity (skin; 1 wt %, 5th patch): 0 person
Number of subjects with ++ reactivity (skin; 1 wt %, 5th patch): 0 person
Number of subjects with ± reactivity (skin; 1 wt %, 5th patch): 0 person
Number of subjects with + reactivity (skin; 1 wt %, 6th patch): 0 person
Number of subjects with ++ reactivity (skin; 1 wt %, 6th patch): 0 person
Number of subjects with ± reactivity (skin; 1 wt %, 6th patch): 0 person
Number of subjects with + reactivity (skin; 1 wt %, 7th patch): 0 person
Number of subjects with ++ reactivity (skin; 1 wt %, 7th patch): 0 person
Number of subjects with ± reactivity (skin; 1 wt %, 7th patch): 0 person
Number of subjects with + reactivity (skin; 1 wt %, 8th patch): 0 person
Number of subjects with ++ reactivity (skin; 1 wt %, 8th patch): 0 person
Number of subjects with ± reactivity (skin; 1 wt %, 8th patch): 0 person
Average reactivity (skin; 1 wt %): 0
Number of subjects with + reactivity (skin; 1 wt %, 9th patch): 0 person
Number of subjects with ++ reactivity (skin; 1 wt %, 9th patch): 0 person
Number of subjects with ± reactivity (skin; 1 wt %, 9th patch): 0 person
Number of subjects with + reactivity (skin; 3 wt %, 1st patch): 0 person
Number of subjects with ++ reactivity (skin; 3 wt %, 1st patch): 0 person
Number of subjects with ± reactivity (skin; 3 wt %, 1st patch): 0 person
Number of subjects with + reactivity (skin; 3 wt %, 2nd patch): 0 person
Number of subjects with ++ reactivity (skin; 3 wt %, 2nd patch): 0 person
Number of subjects with ± reactivity (skin; 3 wt %, 2nd patch): 0 person
Number of subjects with + reactivity (skin; 3 wt %, 3rd patch): 0 person
Number of subjects with ++ reactivity (skin; 3 wt %, 3rd patch): 0 person
Number of subjects with ± reactivity (skin; 3 wt %, 3rd patch): 0 person
Number of subjects with + reactivity (skin; 3 wt %, 4th patch): 0 person
Number of subjects with ++ reactivity (skin; 3 wt %, 4th patch): 0 person
Number of subjects with ± reactivity (skin; 3 wt %, 4th patch): 0 person
Number of subjects with + reactivity (skin; 3 wt %, 5th patch): 0 person
Number of subjects with ++ reactivity (skin; 3 wt %, 5th patch): 0 person
Number of subjects with ± reactivity (skin; 3 wt %, 5th patch): 0 person
Number of subjects with + reactivity (skin; 3 wt %, 6th patch): 0 person
Number of subjects with ++ reactivity (skin; 3 wt %, 6th patch): 0 person
Number of subjects with ± reactivity (skin; 3 wt %, 6th patch): 0 person
Number of subjects with + reactivity (skin; 3 wt %, 7th patch): 0 person
Number of subjects with ++ reactivity (skin; 3 wt %, 7th patch): 0 person
Number of subjects with ± reactivity (skin; 3 wt %, 7th patch): 0 person
Number of subjects with + reactivity (skin; 3 wt %, 8th patch): 0 person
Number of subjects with ++ reactivity (skin; 3 wt %, 8th patch): 0 person
Number of subjects with ± reactivity (skin; 3 wt %, 8th patch): 0 person
Average reactivity (skin; 3 wt %): 0
Number of subjects with + reactivity (skin; 3 wt %, 9th patch): 0 person
Number of subjects with ++ reactivity (skin; 3 wt %, 9th patch): 0 person
Number of subjects with ± reactivity (skin; 3 wt %, 9th patch): 0 person
skin reactivity (ICDRG criteria) (skin; content range 0.5 to 3 wt %, all subjects): −
Compound: C[C@@H]1O[C@@H](OC[C@H]2O[C@@H](Oc3c(-c4ccc(O)cc4)oc4cc(O)cc(O)c4c3=O)[C@H](OC(=O)/C=C/c3ccc(O)cc3)[C@@H](O)[C@@H]2O)[C@H](O)[C@H](O[C@@H]2O[C@H](CO)[C@@H](O)[C@H](O)[C@H]2O)[C@H]1O [new material 33, kaempferol3-O-[2-O″-(E)-p-coumaroyl][beta-D-glucopyranosyl-(1→3)-O-alpha-L-rhamnopyranosyl-(1→6)-O-beta-D-glucopyranoside]]
inhibition at 100 µg/mL (PGE2 (Prostaglandin E2); Homo sapiens, 100 μg/ml, {1−(test sample−control)/(H2O2−control)}×100, control = a-bisabolol, read-out: Inhibitory Effect according to Equation 1, PGE2): 82.1%
PGE2 (PGE2 (Prostaglandin E2)): 231 pg/mL
effect on PGE2 increased by H2O2 (PGE2 (Prostaglandin E2); in words): effect of reducing
inhibition at 100 µg/mL (IL-6 (Interleukin 6); Homo sapiens, 100 μg/ml, {1−(test sample−control)/(H2O2−control)}×100, control = a-bisabolol, read-out: Inhibitory Effect according to Equation 1, IL-6): 72.3%
IL-6 (IL-6 (Interleukin 6)): 198 pg/mL
effect on IL-6 increased by H2O2 (IL-6 (Interleukin 6); in words): effect of reducing
inhibition at 100 µg/mL (IL-8 (Interleukin 8); Homo sapiens, 100 μg/ml, {1−(test sample−control)/(H2O2−control)}×100, control = a-bisabolol, read-out: Inhibitory Effect according to Equation 1, IL-8): 88.9%
IL-8 (IL-8 (Interleukin 8)): 210 pg/mL
effect on IL-8 increased by H2O2 (IL-8 (Interleukin 8); in words): effect of reducing
cumulative irritation of the skin (skin; content range 0.5 to 3 wt %, in words): no cumulative irritation of the skin
